According to patent US20140045890A1, “NOVEL COMPOUNDS” (SYNGENTA PARTICIPATIONS AG, priority 2011, published 2014):

Tests used:
Pythium ultimum = Pythium ultimum / liquid culture (seedling damping off); type: cell-based; conditions: Globisporangium ultimum, liquid culture in PDB, 24° C., 2-3 days after application, read-out: inhibit fungal infestation (inhibition of growth determined photometrically)
Plasmopara viticola = Plasmopara viticola / grape / leaf disc preventative; type: in vivo; conditions: foliar, grape vine leaf disks, inoculated 1 day after application, assessed 6-8 days after application, read-out: inhibit fungal infestation (percent disease control compared to untreated)
Phytophthora infestans = experiment: whole plant or invertebrate; type: in vivo; conditions: in Solanum lycopersicum, foliar, read-out: inhibit fungal infestation (percent disease control compared to untreated)
[1] = test system: Blumeria qraminis f. sp. tritici (Erysiphe qraminis f. sp. tritici); experiment: Blumeria graminis f. sp. tritici / wheat / leaf disc preventative (powdery mildew on wheat); type: in vivo; conditions: foliar, wheat leaf segments cv. Kanzler, inoculated 1 day after application, assessed 6-8 days after application, read-out: inhibit fungal infestation (percent disease control compared to untreated)

Structure (SMILES)	melting point	inhibition at 200 ppm (Pythium ultimum)	inhibition at 200 ppm (Plasmopara viticola)	inhibition at 200 ppm (Phytophthora infestans)	inhibition at 200 ppm [1]
COC(Oc1cc(Cl)c2ncc(Br)cc2c1)C(=O)NC(C)(C)c1ccccn1 (centres unmarked) [Compound 14]	95 °C	–	–	–	–
C#Cc1cnc2ccc(OC(SC)C(=O)NC(C)(C)c3ccncc3)cc2c1 (centres unmarked) [Compound 35]	–	≥ 80%	–	–	–
C#Cc1cnc2c(C)cc(OC(SC)C(=O)NC(C)(C)c3ccncc3)cc2c1 (centres unmarked) [Compound 36]	–	≥ 80%	≥ 80%	≥ 80%	–
C#Cc1cnc2ccc(OC(SC)C(=O)NC3(c4ccccn4)CC3)cc2c1 (centres unmarked) [Compound 37]	–	≥ 80%	–	≥ 80%	≥ 80%
C#Cc1cnc2c(C)cc(OC(SC)C(=O)NC3(c4ccccn4)CC3)cc2c1 (centres unmarked) [Compound 38]	–	≥ 80%	≥ 80%	–	–
C#Cc1cnc2ccc(OC(SC)C(=O)NC(C)(C)c3cc(C(=O)OC)on3)cc2c1 (centres unmarked) [Compound 40]	–	≥ 80%	–	≥ 80%	–
C#Cc1cnc2c(C)cc(OC(SC)C(=O)NC(C)(C)c3cc(C(=O)OC)on3)cc2c1 (centres unmarked) [Compound 41]	–	≥ 80%	≥ 80%	–	–
C#Cc1cnc2c(C)cc(OC(SC)C(=O)NC(C)(C)c3cc(CO)on3)cc2c1 (centres unmarked) [Compound 43]	–	≥ 80%	≥ 80%	≥ 80%	–
C#Cc1cnc2ccc(OC(SC)C(=O)NC(C)(C)c3nocc3I)cc2c1 (centres unmarked) [Compound 49]	–	≥ 80%	≥ 80%	≥ 80%	–
C#Cc1cnc2ccc(OC(SC)C(=O)NC(C)(C)c3noc4ccccc34)cc2c1 (centres unmarked) [Compound 50]	–	≥ 80%	≥ 80%	–	–
C#Cc1cnc2ccc(OC(SC)C(=O)NC(C)(C)c3cc(COC)on3)cc2c1 (centres unmarked) [Compound 52]	–	≥ 80%	≥ 80%	≥ 80%	≥ 80%
C#Cc1cnc2ccc(OC(SC)C(=O)NC(C)(C)c3noc(C)c3Cl)cc2c1 (centres unmarked) [Compound 54]	–	≥ 80%	≥ 80%	≥ 80%	≥ 80%
C#Cc1cnc2ccc(OC(OC)C(=O)NC(C)(C)c3ccccn3)cc2c1 (centres unmarked) [Compound 55]	–	≥ 80%	–	≥ 80%	≥ 80%
C#Cc1cnc2c(C)cc(OC(SC)C(=O)NC(C)(C)c3cccnc3)cc2c1 (centres unmarked) [Compound 56]	–	≥ 80%	≥ 80%	–	–
C#Cc1cnc2ccc(OC(SC)C(=O)NC(C)(C)c3cccnc3)cc2c1 (centres unmarked) [Compound 57]	–	≥ 80%	–	–	–
C#Cc1cnc2ccc(OC(SC)C(=O)NC(C)(C)c3csc([Si](C)(C)C)n3)cc2c1 (centres unmarked) [Compound 58]	–	≥ 80%	–	–	–
C#Cc1cnc2ccc(OC(SC)C(=O)NC(C)(C)c3nscc3C(=O)OC)cc2c1 (centres unmarked) [Compound 61]	–	≥ 80%	≥ 80%	–	–
C#Cc1cnc2ccc(OC(SC)C(=O)NC(C)(C)c3cc(C(=O)OC)sn3)cc2c1 (centres unmarked) [Compound 62, methyl 3-[1-[[2-[(3-ethynyl-6-quinolyl)oxy]-2-methylsulfanyl-acetyl]amino]-1-methyl-ethyl]isothiazole-5-carboxylate]	–	≥ 80%	≥ 80%	–	≥ 80%
C#Cc1cnc2ccc(OC(SC)C(=O)NC(C)(C)c3nc(C)c(C)s3)cc2c1 (centres unmarked) [Compound 63]	–	≥ 80%	–	–	≥ 80%
C#Cc1cnc2ccc(OC(SC)C(=O)NC(C)(C)c3nocc3Br)cc2c1 (centres unmarked) [Compound 64]	–	≥ 80%	≥ 80%	≥ 80%	≥ 80%
CSc1cnc2ccc(OC(SC)C(=O)NC(C)(C)c3nocc3Br)cc2c1 (centres unmarked) [Compound 65]	–	≥ 80%	–	–	–
CSc1cnc2ccc(OC(SC)C(=O)NC(C)(C)c3cc(C)on3)cc2c1 (centres unmarked) [Compound 66]	–	≥ 80%	≥ 80%	–	–
C#Cc1cnc2c(C)cc(OC(SC)C(=O)NC(C)(C)c3cc(C)on3)cc2c1 (centres unmarked) [Compound 67]	–	≥ 80%	≥ 80%	≥ 80%	≥ 80%
C#Cc1cnc2c(F)cc(OC(SC)C(=O)NC(C)(C)c3cc(C)on3)cc2c1 (centres unmarked) [Compound 69]	–	≥ 80%	≥ 80%	≥ 80%	≥ 80%
C#Cc1cnc2cc(F)c(OC(SC)C(=O)NC(C)(C)c3cc(C)on3)cc2c1 (centres unmarked) [Compound 70]	–	–	–	≥ 80%	–
CSc1cnc2ccc(OC(SC)C(=O)NC(C)(C)c3cc(Cl)on3)cc2c1 (centres unmarked) [Compound 71]	–	≥ 80%	≥ 80%	–	–
C#Cc1cnc2c(C)cc(OC(SC)C(=O)NC(C)(C)c3cc(Cl)on3)cc2c1 (centres unmarked) [Compound 72]	–	≥ 80%	≥ 80%	≥ 80%	–

Structure (SMILES)	melting point	inhibition at 200 ppm (Pythium ultimum)	inhibition at 200 ppm (Plasmopara viticola)	inhibition at 200 ppm (Phytophthora infestans)	inhibition at 200 ppm [1]
CSc1cnc2ccc(OC(SC)C(=O)NC(C)(C)c3nocc3C)cc2c1 (centres unmarked) [Compound 74]	–	≥ 80%	–	–	–
C#Cc1cnc2c(Cl)cc(OC(SC)C(=O)NC(C)(C)c3nocc3C)cc2c1 (centres unmarked) [Compound 76]	–	≥ 80%	≥ 80%	≥ 80%	–
C#Cc1cnc2c(F)cc(OC(SC)C(=O)NC(C)(C)c3nocc3C)cc2c1 (centres unmarked) [Compound 77]	–	≥ 80%	≥ 80%	≥ 80%	≥ 80%
C#Cc1cnc2ccc(OC(SC)C(=O)NCc3ncc(C)s3)cc2c1 (centres unmarked) [Compound 79]	–	≥ 80%	–	–	≥ 80%
C#Cc1cnc2ccc(OC(SC)C(=O)NC(C)(C)c3cc(CC)on3)cc2c1 (centres unmarked) [Compound 82]	–	≥ 80%	≥ 80%	≥ 80%	≥ 80%
C#Cc1cnc2ccc(OC(SC)C(=O)NC(C)(C)c3cc(C(F)(F)F)on3)cc2c1 (centres unmarked) [Compound 83]	–	≥ 80%	≥ 80%	≥ 80%	≥ 80%
C#Cc1cnc2c(F)cc(OC(SC)C(=O)NC(C)(C)c3cc(COC)on3)cc2c1 (centres unmarked) [Compound 89]	–	≥ 80%	≥ 80%	≥ 80%	≥ 80%
C#Cc1cnc2c(F)cc(OC(SC)C(=O)NC(C)(C)c3cc(C(F)(F)F)on3)cc2c1 (centres unmarked) [Compound 91]	–	–	≥ 80%	≥ 80%	–
C#Cc1cnc2c(C)cc(OC(SC)C(=O)NC(C)(C)c3cc(CC)on3)cc2c1 (centres unmarked) [Compound 94]	–	≥ 80%	≥ 80%	≥ 80%	≥ 80%
C#Cc1cnc2c(Cl)cc(OC(SC)C(=O)NC(C)(C)c3cc(COC)on3)cc2c1 (centres unmarked) [Compound 96]	–	≥ 80%	≥ 80%	≥ 80%	≥ 80%
C#Cc1cnc2c(Cl)cc(OC(SC)C(=O)NC(C)(C)c3cc(C(F)(F)F)on3)cc2c1 (centres unmarked) [Compound 99]	–	–	≥ 80%	–	–
COCc1cc(C(C)(C)NC(=O)C(Oc2ccc3ncc(SC)cc3c2)SC)no1 (centres unmarked) [Compound 100]	–	≥ 80%	≥ 80%	≥ 80%	–
CCc1cc(C(C)(C)NC(=O)C(Oc2ccc3ncc(SC)cc3c2)SC)no1 (centres unmarked) [Compound 103]	–	≥ 80%	≥ 80%	–	–
CSc1cnc2ccc(OC(SC)C(=O)NC(C)(C)c3cc(C(F)(F)F)on3)cc2c1 (centres unmarked) [Compound 104]	–	≥ 80%	≥ 80%	–	–
COCc1cc(C(C)(C)NC(=O)C(Oc2ccc3ncc(I)cc3c2)SC)no1 (centres unmarked) [Compound 105]	–	≥ 80%	≥ 80%	≥ 80%	≥ 80%
CSC(Oc1ccc2ncc(I)cc2c1)C(=O)NC(C)(C)c1cc(C(F)(F)F)on1 (centres unmarked) [Compound 108]	–	≥ 80%	≥ 80%	–	–
CSC(Oc1ccc2ncc(I)cc2c1)C(=O)NC(C)(C)c1cc(C)on1 (centres unmarked) [Compound 109]	–	≥ 80%	≥ 80%	≥ 80%	≥ 80%
CSC(Oc1ccc2ncc(I)cc2c1)C(=O)NC(C)(C)c1nocc1C (centres unmarked) [Compound 110]	–	≥ 80%	≥ 80%	≥ 80%	≥ 80%
CSc1cnc2ccc(OC(SC)C(=O)NC(C)(C)c3cccc(C)n3)cc2c1 (centres unmarked) [Compound 114]	–	≥ 80%	–	–	–
C#Cc1cnc2c(F)cc(OC(SC)C(=O)NCc3nccs3)cc2c1 (centres unmarked) [Compound 115]	–	≥ 80%	–	–	≥ 80%
CSc1cnc2ccc(OC(SC)C(=O)NCc3nccs3)cc2c1 (centres unmarked) [Compound 118]	–	≥ 80%	–	–	–
C#Cc1cnc2c(F)cc(OC(SC)C(=O)NCc3nc(C)cs3)cc2c1 (centres unmarked) [Compound 119]	–	≥ 80%	≥ 80%	–	≥ 80%
C#Cc1cnc2c(Cl)cc(OC(SC)C(=O)NCc3nc(C)cs3)cc2c1 (centres unmarked) [Compound 120]	–	≥ 80%	≥ 80%	–	≥ 80%
CSc1cnc2ccc(OC(SC)C(=O)NCc3nc(C)cs3)cc2c1 (centres unmarked) [Compound 121]	–	≥ 80%	–	–	–
C#Cc1cnc2c(F)cc(OC(SC)C(=O)NCc3ncc(C)s3)cc2c1 (centres unmarked) [Compound 122]	–	≥ 80%	–	–	≥ 80%
CSC(Oc1cc(C)c2ncc(I)cc2c1)C(=O)NCc1cccnc1 (centres unmarked) [Compound 125]	–	≥ 80%	–	–	–
CSC(Oc1cc(C)c2ncc(I)cc2c1)C(=O)NCc1ccc(Cl)nc1 (centres unmarked) [Compound 127]	–	–	–	–	≥ 80%
